# pIC50: −log10 of the molar value. The source made the active and inactive calls. No cut-off for these calls is given here.
# Columns and labels:
# [1] = test system: MV4-11; assay: Induction of apoptosis in human MV4-11 cells assessed as early apoptotic cells at 10 nM incubated for 48 hrs by Annexin V/7-AAD staining based flow cytometric analysis relative to control; type: functional
# [2] = test system: MV4-11; assay: Antitumor activity against human MV4-11 cells xenografted in NOD/SCID mouse assessed as reduction in tumor volume at 6 mg/kg, po administered once a day for 21 days; type: functional, organism-based; conditions: time 21.0 day
# [3] = test system: MV4-11; assay: Induction of apoptosis in human MV4-11 cells assessed as late apoptotic cells at 2 nM incubated for 48 hrs by Annexin V/7-AAD staining based flow cytometric analysis relative to control; type: functional
# [4] = test system: MV4-11; assay: Induction of cell cycle arrest at G0/G1 phase in human MV4-11 cells assessed as sub-G0/G1 phase cells at 0.4 nM incubated for 24 hrs by PI staining based flow cytometric analysis relative to control; type: functional
# [5] = test system: MV4-11; assay: Induction of cell cycle arrest at G0/G1 phase in human MV4-11 cells assessed as S phase cells at 0.4 nM incubated for 24 hrs by PI staining based flow cytometric analysis relative to control; type: functional
# [6] = test system: MV4-11; assay: Induction of cell cycle arrest at G0/G1 phase in human MV4-11 cells assessed as G2/M phase cells at 2 nM incubated for 24 hrs by PI staining based flow cytometric analysis relative to control; type: functional
# [7] = test system: MV4-11; assay: Induction of cell cycle arrest at G0/G1 phase in human MV4-11 cells assessed as G2/M phase cells at 0.4 nM incubated for 24 hrs by PI staining based flow cytometric analysis relative to control; type: functional
# [8] = test system: MV4-11; assay: Inhibition of PI3K/AKT signaling pathway in human MV4-11 cells assessed as reduction in phosphorylated AKT level at 0.08 to 50 nM incubated for 24 hrs by immunoblotting analysis; type: cell-based; conditions: dose 0.08-50 nM
# [9] = test system: MV4-11; assay: Antiproliferative activity against human MV4-11 cells assessed as inhibition of cell proliferation incubated for 72 hrs by CCK8 assay; type: functional, cell-based; conditions: MV4-11, 72 h
# [10] = test system: MV4-11; assay: Induction of cell cycle arrest at G0/G1 phase in human MV4-11 cells assessed as G0/G1 phase cells at 2 nM incubated for 24 hrs by PI staining based flow cytometric analysis relative to control; type: functional
# [11] = test system: MV4-11; assay: Induction of cell cycle arrest at G0/G1 phase in human MV4-11 cells assessed as sub-G0/G1 phase cells at 2 nM incubated for 24 hrs by PI staining based flow cytometric analysis relative to control; type: functional
# [12] = test system: MV4-11; assay: Induction of cell cycle arrest at G0/G1 phase in human MV4-11 cells assessed as G0/G1 phase cells at 0.4 nM incubated for 24 hrs by PI staining based flow cytometric analysis relative to control; type: functional
# [13] = test system: MV4-11; assay: Induction of apoptosis in human MV4-11 cells assessed as early apoptotic cells at 2 nM incubated for 48 hrs by Annexin V/7-AAD staining based flow cytometric analysis relative to control; type: functional
# [14] = test system: MV4-11; assay: Induction of cell cycle arrest at G0/G1 phase in human MV4-11 cells assessed as S phase cells at 2 nM incubated for 24 hrs by PI staining based flow cytometric analysis relative to control; type: functional
# [15] = test system: MV4-11; assay: Induction of apoptosis in human MV4-11 cells assessed as late apoptotic cells at 10 nM incubated for 48 hrs by Annexin V/7-AAD staining based flow cytometric analysis relative to control; type: functional
# [16] = test system: MV4-11; assay: Induction of apoptosis in human MV4-11 cells assessed as necrotic cells at 10 nM incubated for 48 hrs by Annexin V/7-AAD staining based flow cytometric analysis relative to control; type: functional
# [17] = target: T1, Protein cereblon/Receptor-type tyrosine-protein kinase FLT3 (Homo sapiens, UniProt P36888+Q96SW2); assay: PROTAC activity at CRBN/FLT3 in human MV4-11 cells harboring FLT3-ITD mutation assessed as induction of FLT3 degradation incubated for 24 hrs by immunoblotting analysis; type: cell-based
# [18] = target: T1, Protein cereblon/Receptor-type tyrosine-protein kinase FLT3; assay: PROTAC activity at CRBN/FLT3 in human MV4-11 cells harboring FLT3-ITD mutation assessed as induction of FLT3 degradation by measuring maximal efficacy incubated for 24 hrs by immunoblotting analysis relative to control; type: cell-based
# Target sequence in this assay (P36888 27-993 limits assumed): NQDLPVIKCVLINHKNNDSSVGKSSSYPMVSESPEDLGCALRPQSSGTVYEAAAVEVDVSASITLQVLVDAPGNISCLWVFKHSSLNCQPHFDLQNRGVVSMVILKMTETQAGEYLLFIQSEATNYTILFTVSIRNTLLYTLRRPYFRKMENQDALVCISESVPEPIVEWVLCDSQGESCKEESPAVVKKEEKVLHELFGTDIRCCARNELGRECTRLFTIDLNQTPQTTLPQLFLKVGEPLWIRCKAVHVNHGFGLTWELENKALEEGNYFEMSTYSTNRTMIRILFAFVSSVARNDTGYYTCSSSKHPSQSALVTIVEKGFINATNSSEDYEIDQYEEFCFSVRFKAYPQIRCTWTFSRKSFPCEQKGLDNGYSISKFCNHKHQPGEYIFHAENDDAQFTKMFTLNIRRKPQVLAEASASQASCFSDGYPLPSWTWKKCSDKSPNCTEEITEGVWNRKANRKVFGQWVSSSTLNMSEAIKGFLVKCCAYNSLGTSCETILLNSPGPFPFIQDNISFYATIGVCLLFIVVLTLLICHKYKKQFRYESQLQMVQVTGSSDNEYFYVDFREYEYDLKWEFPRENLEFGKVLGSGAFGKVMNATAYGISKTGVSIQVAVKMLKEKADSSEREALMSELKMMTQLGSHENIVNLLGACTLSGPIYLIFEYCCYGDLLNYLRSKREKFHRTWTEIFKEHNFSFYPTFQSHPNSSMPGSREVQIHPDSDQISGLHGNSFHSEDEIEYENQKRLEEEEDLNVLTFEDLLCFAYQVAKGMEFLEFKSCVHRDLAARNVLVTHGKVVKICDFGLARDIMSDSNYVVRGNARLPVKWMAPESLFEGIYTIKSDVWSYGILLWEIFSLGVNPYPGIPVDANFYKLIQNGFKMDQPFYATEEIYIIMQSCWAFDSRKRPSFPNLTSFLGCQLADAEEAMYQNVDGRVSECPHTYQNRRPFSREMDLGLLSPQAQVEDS
# Target sequence in this assay (Q96SW2 whole entry partner): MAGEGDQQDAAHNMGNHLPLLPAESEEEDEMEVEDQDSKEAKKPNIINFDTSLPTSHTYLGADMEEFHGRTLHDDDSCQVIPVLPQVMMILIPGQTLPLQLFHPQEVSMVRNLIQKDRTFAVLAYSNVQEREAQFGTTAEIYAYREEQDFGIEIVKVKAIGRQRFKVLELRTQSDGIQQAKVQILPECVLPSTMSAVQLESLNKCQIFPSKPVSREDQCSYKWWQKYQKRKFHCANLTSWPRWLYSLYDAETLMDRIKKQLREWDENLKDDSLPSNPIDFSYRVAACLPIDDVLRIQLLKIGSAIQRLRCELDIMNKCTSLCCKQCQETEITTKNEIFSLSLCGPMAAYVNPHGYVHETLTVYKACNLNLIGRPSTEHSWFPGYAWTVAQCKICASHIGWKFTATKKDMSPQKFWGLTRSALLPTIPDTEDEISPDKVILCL
# [19] = target: T1, Protein cereblon/Receptor-type tyrosine-protein kinase FLT3; assay: PROTAC activity at CRBN/FLT3 in human MV4-11 cells harboring FLT3-ITD mutation assessed as induction of FLT3 degradation at 10 nM incubated for 24 hrs by immunoblotting analysis relative to control; type: cell-based
# Target sequence in this assay (P36888 27-993 limits assumed): as the sequence (P36888 27-993 limits assumed) above
# Target sequence in this assay (Q96SW2 whole entry partner): as the sequence (Q96SW2 whole entry partner) above
# [20] = test system: MV4-11; assay: Inhibition of ERK phosphorylation in human MV4-11 cells incubated for 24 hrs by immunoblotting analysis; type: cell-based; conditions: dose 0.08-50 nM
# [21] = target: Leukocyte tyrosine kinase receptor (Homo sapiens) (UniProt P29376); assay: Induction of LTK degradation in human Raji cells at 1 to 10 nM measured upto 24 hrs by immunoblotting analysis; type: cell-based; conditions: dose 1-10 nM
# [22] = target: T1, Protein cereblon/Receptor-type tyrosine-protein kinase FLT3; assay: PROTAC activity at CRBN/FLT3 in human MV4-11 cells harboring FLT3 ITD mutation assessed as induction of FLT3 degradation at 1 nM incubated for 6 hrs in presence of MLN4924 by immunoblotting analysis; type: cell-based
# Target sequence in this assay (P36888 27-993 limits assumed): as the sequence (P36888 27-993 limits assumed) above
# Target sequence in this assay (Q96SW2 whole entry partner): as the sequence (Q96SW2 whole entry partner) above
# [23] = Toxicity in NOD/SCID mouse xenografted with human MV4-11 cells assessed as weight loss at 6 mg/kg, ip administered once daily for 21 days; type: organism-based; conditions: in vivo, 504 h, time 21 day
# [24] = test system: MV4-11; assay: Inhibition of PI3K/AKT signaling pathway in human MV4-11 cells assessed as reduction in AKT phosphorylation incubated for 24 hrs by immunoblotting analysis; type: cell-based; conditions: dose 0.08-50 nM
# [25] = target: T1, Protein cereblon/Receptor-type tyrosine-protein kinase FLT3; assay: PROTAC activity at CRBN/FLT3 in human MV4-11 cells harboring FLT3-ITD mutation assessed as reduction in FLT3 phosphorylation incubated for 24 hrs by immunoblotting analysis; type: cell-based; conditions: dose 0.08-50 nM
# Target sequence in this assay (P36888 27-993 limits assumed): as the sequence (P36888 27-993 limits assumed) above
# Target sequence in this assay (Q96SW2 whole entry partner): as the sequence (Q96SW2 whole entry partner) above
# [26] = test system: MV4-11; assay: Induction of apoptosis in human MV4-11 cells assessed as increase in cleaved caspase 3 level at 2 to 10 nM incubated for 48 hrs by immunoblotting analysis; type: functional, cell-based; conditions: dose 2-10 nM
# [27] = test system: MV4-11; assay: Antitumor activity against human MV4-11 cells xenografted in NOD/SCID mouse assessed as reduction in tumor volume at 6 mg/kg, ip administered once a day for 21 days; type: functional, organism-based; conditions: time 21.0 day
# [28] = target: Tyrosine-protein kinase receptor UFO (Homo sapiens) (UniProt P30530); assay: Induction of AXL degradation in human MDA-MB-231 cells at 1 to 10 nM measured upto 20 hrs by immunoblotting analysis; type: cell-based; conditions: dose 1-10 nM
# [29] = target: ALK tyrosine kinase receptor (Homo sapiens) (UniProt Q9UM73); assay: Induction of ALK degradation in human Raji cells at 1 to 10 nM measured upto 24 hrs by immunoblotting analysis; type: cell-based; conditions: dose 1-10 nM
# [30] = test system: MV4-11; assay: Induction of apoptosis in human MV4-11 cells incubated for 48 hrs by Annexin V/7-AAD staining based flow cytometric analysis; type: functional, cell-based; conditions: dose 0.016-10 nM
# [31] = test system: MV4-11; assay: Potency index, ratio of gilteritinib IC50 to test compound IC50 for antiproliferative activity against human MV4-11 cells assessed as inhibition of cell proliferation incubated for 72 hrs by CCK8 assay; type: functional
# [32] = test system: MV4-11; assay: Induction of apoptosis in human MV4-11 cells assessed as increase in cleaved PARP level at 2 to 10 nM incubated for 48 hrs by immunoblotting analysis; type: functional, cell-based; conditions: dose 2-10 nM
# [33] = target: T1, Protein cereblon/Receptor-type tyrosine-protein kinase FLT3; assay: PROTAC activity at CRBN/FLT3 in human MV4-11 cells harboring FLT3-ITD mutation assessed as induction of FLT3 degradation at 1 nM incubated for 2 to 20 hrs by Immunoblotting analysis; type: cell-based; conditions: time 2-20 hrs
# Target sequence in this assay (P36888 27-993 limits assumed): as the sequence (P36888 27-993 limits assumed) above
# Target sequence in this assay (Q96SW2 whole entry partner): as the sequence (Q96SW2 whole entry partner) above
# [34] = target: T1, Protein cereblon/Receptor-type tyrosine-protein kinase FLT3; assay: PROTAC activity at CRBN/FLT3 in human MV4-11 cells harboring FLT3 ITD mutation assessed as induction of FLT3 degradation at 1 nM incubated for 6 hrs in presence of lenalidomide by Immunoblotting analysis; type: cell-based
# Target sequence in this assay (P36888 27-993 limits assumed): as the sequence (P36888 27-993 limits assumed) above
# Target sequence in this assay (Q96SW2 whole entry partner): as the sequence (Q96SW2 whole entry partner) above
# [35] = target: T1, Protein cereblon/Receptor-type tyrosine-protein kinase FLT3; assay: PROTAC activity at CRBN/FLT3 in human MV4-11 cells harboring FLT3 ITD mutation assessed as induction of FLT3 degradation at 1 nM measured upto 12 hrs in presence of cycloheximide by immunoblotting analysis; type: cell-based
# [36] = test system: MV4-11; assay: Inhibition of JAK/STAT5 signaling pathway in human MV4-11 cells assessed as reduction in STAT5 phosphorylation incubated for 24 hrs by immunoblotting analysis; type: cell-based; conditions: dose 0.08-50 nM
# [37] = target: T1, Protein cereblon/Receptor-type tyrosine-protein kinase FLT3; assay: PROTAC activity at CRBN/FLT3 in human MV4-11 cells harboring FLT3 ITD mutation assessed as induction of FLT3 degradation at 1 nM incubated for 6 hrs in presence of MG132 by immunoblotting analysis; type: cell-based
# [38] = target: T1, Protein cereblon/Receptor-type tyrosine-protein kinase FLT3; assay: PROTAC activity at CRBN/FLT3 in human MV4-11 cells harboring FLT3 ITD mutation assessed as induction of FLT3 degradation at 1 nM incubated for 6 hrs in presence of gilteritinib by immunoblotting analysis; type: cell-based
# [39] = target: T1, Protein cereblon/Receptor-type tyrosine-protein kinase FLT3; assay: PROTAC activity at CRBN/FLT3 in human MV4-11 cells harboring FLT3 ITD mutation assessed as induction of FLT3 degradation at 1 nM incubated for 6 hrs in presence of bafilomycin by immunoblotting analysis; type: cell-based
# Sequence of ALK tyrosine kinase receptor (Homo sapiens) (Q9UM73 19-1620 limits assumed): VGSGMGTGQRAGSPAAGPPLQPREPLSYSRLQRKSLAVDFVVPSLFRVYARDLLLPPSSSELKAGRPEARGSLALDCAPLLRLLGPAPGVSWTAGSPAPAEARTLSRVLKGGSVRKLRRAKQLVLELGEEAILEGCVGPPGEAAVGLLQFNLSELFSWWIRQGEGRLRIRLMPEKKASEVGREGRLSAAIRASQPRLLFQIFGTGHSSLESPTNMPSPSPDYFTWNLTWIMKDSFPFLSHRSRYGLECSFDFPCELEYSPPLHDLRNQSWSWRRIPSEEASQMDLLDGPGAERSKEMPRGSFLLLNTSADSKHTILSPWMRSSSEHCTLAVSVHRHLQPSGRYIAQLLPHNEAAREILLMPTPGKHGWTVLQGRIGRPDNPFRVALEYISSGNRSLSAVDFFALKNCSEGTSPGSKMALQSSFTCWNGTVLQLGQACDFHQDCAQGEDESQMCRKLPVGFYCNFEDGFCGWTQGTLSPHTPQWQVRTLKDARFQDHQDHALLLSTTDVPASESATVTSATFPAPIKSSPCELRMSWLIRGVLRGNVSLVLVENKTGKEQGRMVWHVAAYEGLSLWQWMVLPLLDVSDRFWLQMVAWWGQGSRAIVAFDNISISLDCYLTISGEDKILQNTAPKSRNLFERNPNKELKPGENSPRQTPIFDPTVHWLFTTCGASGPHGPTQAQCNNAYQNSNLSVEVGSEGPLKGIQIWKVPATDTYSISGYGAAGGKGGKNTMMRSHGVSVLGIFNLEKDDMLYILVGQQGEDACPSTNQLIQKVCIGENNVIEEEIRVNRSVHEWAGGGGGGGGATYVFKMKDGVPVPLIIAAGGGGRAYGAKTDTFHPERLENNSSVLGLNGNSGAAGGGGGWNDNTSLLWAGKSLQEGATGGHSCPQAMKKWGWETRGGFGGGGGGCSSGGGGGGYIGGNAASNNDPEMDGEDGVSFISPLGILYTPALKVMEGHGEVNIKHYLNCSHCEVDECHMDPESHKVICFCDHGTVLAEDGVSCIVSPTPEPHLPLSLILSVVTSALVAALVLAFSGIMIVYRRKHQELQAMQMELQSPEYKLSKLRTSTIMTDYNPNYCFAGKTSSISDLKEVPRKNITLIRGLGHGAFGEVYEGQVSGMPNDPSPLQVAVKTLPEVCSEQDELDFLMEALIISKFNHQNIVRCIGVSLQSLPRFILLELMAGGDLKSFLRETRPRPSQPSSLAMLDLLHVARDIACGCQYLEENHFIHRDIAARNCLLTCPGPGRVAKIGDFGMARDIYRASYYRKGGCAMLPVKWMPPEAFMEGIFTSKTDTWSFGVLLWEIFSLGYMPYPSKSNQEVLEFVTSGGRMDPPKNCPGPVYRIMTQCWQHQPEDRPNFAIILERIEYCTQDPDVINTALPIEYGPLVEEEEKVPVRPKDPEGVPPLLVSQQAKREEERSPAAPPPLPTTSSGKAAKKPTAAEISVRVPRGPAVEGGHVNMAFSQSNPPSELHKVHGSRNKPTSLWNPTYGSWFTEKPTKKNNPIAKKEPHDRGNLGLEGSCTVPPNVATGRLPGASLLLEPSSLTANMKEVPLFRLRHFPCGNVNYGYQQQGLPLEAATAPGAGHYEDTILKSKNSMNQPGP
# Sequence of Tyrosine-protein kinase receptor UFO (Homo sapiens) (P30530 whole entry): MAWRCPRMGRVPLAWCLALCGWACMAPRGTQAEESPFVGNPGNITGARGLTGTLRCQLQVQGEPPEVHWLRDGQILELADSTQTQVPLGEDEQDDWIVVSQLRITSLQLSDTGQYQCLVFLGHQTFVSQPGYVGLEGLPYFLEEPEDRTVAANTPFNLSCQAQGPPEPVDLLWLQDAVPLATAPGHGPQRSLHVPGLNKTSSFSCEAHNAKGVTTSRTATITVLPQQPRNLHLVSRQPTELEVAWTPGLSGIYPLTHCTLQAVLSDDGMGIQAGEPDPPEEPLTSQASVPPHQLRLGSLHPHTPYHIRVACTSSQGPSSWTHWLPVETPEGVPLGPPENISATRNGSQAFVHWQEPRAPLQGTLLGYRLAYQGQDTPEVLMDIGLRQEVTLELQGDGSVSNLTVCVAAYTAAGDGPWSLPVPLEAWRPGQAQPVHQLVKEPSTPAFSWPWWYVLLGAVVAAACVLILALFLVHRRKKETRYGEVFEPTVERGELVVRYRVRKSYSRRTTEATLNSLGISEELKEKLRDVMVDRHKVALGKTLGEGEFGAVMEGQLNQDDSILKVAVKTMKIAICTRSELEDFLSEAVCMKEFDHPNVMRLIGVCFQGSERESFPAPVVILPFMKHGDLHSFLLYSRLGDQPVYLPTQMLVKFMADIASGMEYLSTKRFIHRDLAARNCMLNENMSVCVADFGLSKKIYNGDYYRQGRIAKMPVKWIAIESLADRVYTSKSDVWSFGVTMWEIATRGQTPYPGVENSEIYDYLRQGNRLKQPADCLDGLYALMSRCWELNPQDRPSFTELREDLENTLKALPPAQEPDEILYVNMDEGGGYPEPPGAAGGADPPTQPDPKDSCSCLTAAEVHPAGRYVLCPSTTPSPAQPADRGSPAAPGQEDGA
compound,measurement,setting,value
CCc1nc(C(N)=O)c(Nc2ccc(N3CCC(N4CCN(C)CC4)CC3)c(OC)c2)nc1NC1CCOCC1 [GILTERITINIB],Activity,[1],5.5%
same,Activity,[2],Active
same,Activity,[3],6.8%
same,Activity,[4],1.6%
same,Activity,[5],10.4%
same,Activity,[6],18.5%
same,Activity,[7],21.5%
same,inhibition,[8],inactive
same,pIC50,[9],8.16
same,Activity,[10],72.4%
same,Activity,[11],1.9%
same,Activity,[12],66.3%
same,Activity,[13],3%
same,Activity,[14],6.9%
same,Activity,[15],19.6%
same,Activity,[16],2.3%
CCc1nc(C(N)=O)c(Nc2ccc(N3CCC(N4CCN(C(=O)CCCCCNc5cccc6c5C(=O)N(C5CCC(=O)NC5=O)C6=O)CC4)CC3)c(OC)c2)nc1NC1CCOCC1 (stereo not given),DC50,[17],2.26 nM
same,Emax,[18],77.2%
same,Activity,[19],66%
CCc1nc(C(N)=O)c(Nc2ccc(N3CCC(N4CCN(C(=O)COc5cccc6c5CN(C5CCC(=O)N(C)C5=O)C6=O)CC4)CC3)c(OC)c2)nc1NC1CCOCC1 (stereo not given),DC50,[17],> 1000 nM
same,pIC50,[9],7.64
CCc1nc(C(N)=O)c(Nc2ccc(N3CCC(N4CCN(C(=O)COc5cccc6c5C(=O)N(C5CCC(=O)NC5=O)C6)CC4)CC3)c(OC)c2)nc1NC1CCOCC1 (stereo not given),DC50,[17],1.01 nM
CCc1nc(C(N)=O)c(Nc2ccc(N3CCC(N4CCN(C(=O)CNc5cccc6c5C(=O)N(C5CCC(=O)NC5=O)C6=O)CC4)CC3)c(OC)c2)nc1NC1CCOCC1 (stereo not given),DC50,[17],0.98 nM
same,Emax,[18],85%
same,Activity,[19],60%
CCc1nc(C(N)=O)c(Nc2ccc(N3CCC(N4CCN(C(=O)COc5cccc6c5CN(C5CCC(=O)NC5=O)C6=O)CC4)CC3)c(OC)c2)nc1NC1CCOCC1 (stereo not given),inhibition,[20],Dose-Dependent Effect
same,Activity,[1],3.4%
same,Activity,[17],Dose-Dependent Effect
same,DC50,[17],0.64 nM
same,Activity,[21],inactive
same,Activity,[22],inactive
same,Activity,[23],Non-Toxic
same,inhibition,[24],Dose-Dependent Effect
same,Activity,[25],Active
same,Emax,[18],94.8%
same,Activity,[3],24.8%
same,Activity,[26],Active
same,Activity,[27],Active
same,Activity,[28],inactive
same,Activity,[4],2.4%
same,Activity,[29],inactive
same,Activity,[30],Dose-Dependent Effect
same,Ratio IC50,[31],4.6
same,Activity,[5],5.6%
same,Activity,[6],8.1%
same,Activity,[7],12.1%
same,pIC50,[9],8.82
same,Activity,[32],Active
same,Activity,[33],Active
same,Activity,[10],82.1%
same,Activity,[11],6.8%
same,Activity,[34],inactive
same,Activity,[12],79.8%
same,Activity,[13],2.8%
same,Activity,[35],Active
same,Activity,[14],2.9%
same,inhibition,[36],Dose-Dependent Effect
same,Activity,[37],inactive
same,Activity,[15],33.1%
same,Activity,[16],15.9%
same,Activity,[38],inactive
same,Activity,[39],Active
CCc1nc(C(N)=O)c(Nc2ccc(N3CCC(N4CCN(C(=O)COc5cccc6c5C(=O)N(C5CCC(=O)NC5=O)C6=O)CC4)CC3)c(OC)c2)nc1NC1CCOCC1 (stereo not given),DC50,[17],1.26 nM
same,Emax,[18],86.8%
same,Activity,[19],58%

# From ChEMBL document CHEMBL5537128, “Discovery of LWY713 as a potent and selective FLT3 PROTAC degrader with in vivo activity against acute myeloid leukemia” (Eur J Med Chem, 2024)
